One assay has as its target Protein kinase C (PKC). Kind of assay: Inhibition of protein kinase C (PKC) from rat brain homogenate.
Assay [1] addresses High affinity nerve growth factor receptor (Homo sapiens, UniProt P04629). In words: Inhibition of NGF high affinity receptor tyrosine kinase TrkA.
The target of assay [2] is Mitogen-activated protein kinase kinase kinase 9 (Homo sapiens, UniProt P80192). In words: Inhibition of Mixed lineage kinase 1 (MLK1).
The target in assay [3] is Mitogen-activated protein kinase kinase kinase 11 (Homo sapiens, UniProt Q16584). In words: Inhibition of Mixed lineage kinase 3 (MLK3).
Chain of Mitogen-activated protein kinase kinase kinase 11 (Q16584 whole entry): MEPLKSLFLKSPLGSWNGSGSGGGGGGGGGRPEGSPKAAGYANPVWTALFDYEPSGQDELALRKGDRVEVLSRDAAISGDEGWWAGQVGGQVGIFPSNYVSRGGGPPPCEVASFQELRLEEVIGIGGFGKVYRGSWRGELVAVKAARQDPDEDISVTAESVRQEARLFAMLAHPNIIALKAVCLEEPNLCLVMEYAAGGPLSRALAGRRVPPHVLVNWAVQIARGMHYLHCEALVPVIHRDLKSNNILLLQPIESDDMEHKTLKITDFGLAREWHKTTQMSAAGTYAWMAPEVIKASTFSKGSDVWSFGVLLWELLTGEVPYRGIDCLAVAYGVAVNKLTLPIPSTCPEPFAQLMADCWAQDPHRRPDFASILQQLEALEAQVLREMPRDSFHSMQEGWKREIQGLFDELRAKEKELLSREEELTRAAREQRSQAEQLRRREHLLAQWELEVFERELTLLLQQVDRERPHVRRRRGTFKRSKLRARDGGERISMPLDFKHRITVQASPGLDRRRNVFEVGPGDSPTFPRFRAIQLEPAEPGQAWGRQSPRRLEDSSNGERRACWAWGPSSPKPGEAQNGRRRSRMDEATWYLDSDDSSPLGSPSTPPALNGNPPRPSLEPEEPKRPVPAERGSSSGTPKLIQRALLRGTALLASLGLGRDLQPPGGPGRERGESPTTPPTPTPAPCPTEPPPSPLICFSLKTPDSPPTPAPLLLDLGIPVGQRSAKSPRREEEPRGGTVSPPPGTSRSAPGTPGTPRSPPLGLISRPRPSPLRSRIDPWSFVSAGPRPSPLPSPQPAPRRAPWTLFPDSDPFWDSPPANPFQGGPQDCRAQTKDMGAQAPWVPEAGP
The target in assay [4] is Mitogen-activated protein kinase kinase kinase 10 (Homo sapiens, UniProt Q02779). Kind of assay: Inhibition of Mixed lineage kinase 2(MLK2).
Chain of Mitogen-activated protein kinase kinase kinase 10 (Q02779 whole entry): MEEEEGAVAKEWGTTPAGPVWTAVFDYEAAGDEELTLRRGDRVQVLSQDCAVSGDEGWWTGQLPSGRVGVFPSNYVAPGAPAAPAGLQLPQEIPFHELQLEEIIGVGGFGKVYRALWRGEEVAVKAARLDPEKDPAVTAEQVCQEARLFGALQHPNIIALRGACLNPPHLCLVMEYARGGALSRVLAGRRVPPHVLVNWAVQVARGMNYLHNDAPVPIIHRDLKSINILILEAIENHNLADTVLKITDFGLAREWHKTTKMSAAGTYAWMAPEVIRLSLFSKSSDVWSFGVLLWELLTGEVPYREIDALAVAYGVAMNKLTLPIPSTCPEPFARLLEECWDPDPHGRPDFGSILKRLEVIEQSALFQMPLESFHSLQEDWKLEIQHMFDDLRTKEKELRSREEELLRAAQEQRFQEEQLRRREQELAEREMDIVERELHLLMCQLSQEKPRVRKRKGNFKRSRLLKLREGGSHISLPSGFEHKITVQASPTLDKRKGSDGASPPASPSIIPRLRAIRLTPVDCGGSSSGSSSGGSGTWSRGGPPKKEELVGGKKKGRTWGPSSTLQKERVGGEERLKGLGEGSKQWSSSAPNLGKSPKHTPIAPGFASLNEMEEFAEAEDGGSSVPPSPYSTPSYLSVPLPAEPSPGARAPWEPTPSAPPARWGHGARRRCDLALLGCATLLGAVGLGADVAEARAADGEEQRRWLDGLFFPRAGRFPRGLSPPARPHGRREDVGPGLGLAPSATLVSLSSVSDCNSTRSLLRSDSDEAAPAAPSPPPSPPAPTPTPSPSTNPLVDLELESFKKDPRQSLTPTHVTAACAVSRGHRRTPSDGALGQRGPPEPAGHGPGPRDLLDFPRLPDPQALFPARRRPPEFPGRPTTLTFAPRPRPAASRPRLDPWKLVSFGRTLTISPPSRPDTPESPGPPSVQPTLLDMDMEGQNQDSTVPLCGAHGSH

As a reminder, the IC50 is the point on the concentration scale where inhibition reaches its midpoint. A higher IC50 goes with lower potency.

Chain of High affinity nerve growth factor receptor (P04629 whole entry): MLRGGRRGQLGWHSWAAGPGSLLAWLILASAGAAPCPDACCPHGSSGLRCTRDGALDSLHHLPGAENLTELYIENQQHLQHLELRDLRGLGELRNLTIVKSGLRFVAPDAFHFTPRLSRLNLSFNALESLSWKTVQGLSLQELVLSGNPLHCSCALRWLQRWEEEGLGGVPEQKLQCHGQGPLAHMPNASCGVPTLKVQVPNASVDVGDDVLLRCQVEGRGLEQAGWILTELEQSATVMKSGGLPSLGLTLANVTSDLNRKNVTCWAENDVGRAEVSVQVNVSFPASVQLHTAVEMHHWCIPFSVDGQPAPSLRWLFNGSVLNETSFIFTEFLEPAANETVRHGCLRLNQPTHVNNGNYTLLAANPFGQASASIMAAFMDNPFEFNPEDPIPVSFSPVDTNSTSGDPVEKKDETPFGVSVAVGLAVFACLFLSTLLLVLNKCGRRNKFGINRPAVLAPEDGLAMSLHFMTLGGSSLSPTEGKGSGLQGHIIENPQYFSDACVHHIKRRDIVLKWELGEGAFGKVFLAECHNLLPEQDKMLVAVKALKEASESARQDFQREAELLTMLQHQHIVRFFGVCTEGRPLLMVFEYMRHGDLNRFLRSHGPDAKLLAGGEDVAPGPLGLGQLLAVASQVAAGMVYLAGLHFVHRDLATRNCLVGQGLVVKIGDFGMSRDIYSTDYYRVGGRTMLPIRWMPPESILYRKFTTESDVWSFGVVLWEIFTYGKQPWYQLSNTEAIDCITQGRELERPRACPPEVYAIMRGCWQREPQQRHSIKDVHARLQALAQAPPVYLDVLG
Chain of Mitogen-activated protein kinase kinase kinase 9 (P80192 whole entry): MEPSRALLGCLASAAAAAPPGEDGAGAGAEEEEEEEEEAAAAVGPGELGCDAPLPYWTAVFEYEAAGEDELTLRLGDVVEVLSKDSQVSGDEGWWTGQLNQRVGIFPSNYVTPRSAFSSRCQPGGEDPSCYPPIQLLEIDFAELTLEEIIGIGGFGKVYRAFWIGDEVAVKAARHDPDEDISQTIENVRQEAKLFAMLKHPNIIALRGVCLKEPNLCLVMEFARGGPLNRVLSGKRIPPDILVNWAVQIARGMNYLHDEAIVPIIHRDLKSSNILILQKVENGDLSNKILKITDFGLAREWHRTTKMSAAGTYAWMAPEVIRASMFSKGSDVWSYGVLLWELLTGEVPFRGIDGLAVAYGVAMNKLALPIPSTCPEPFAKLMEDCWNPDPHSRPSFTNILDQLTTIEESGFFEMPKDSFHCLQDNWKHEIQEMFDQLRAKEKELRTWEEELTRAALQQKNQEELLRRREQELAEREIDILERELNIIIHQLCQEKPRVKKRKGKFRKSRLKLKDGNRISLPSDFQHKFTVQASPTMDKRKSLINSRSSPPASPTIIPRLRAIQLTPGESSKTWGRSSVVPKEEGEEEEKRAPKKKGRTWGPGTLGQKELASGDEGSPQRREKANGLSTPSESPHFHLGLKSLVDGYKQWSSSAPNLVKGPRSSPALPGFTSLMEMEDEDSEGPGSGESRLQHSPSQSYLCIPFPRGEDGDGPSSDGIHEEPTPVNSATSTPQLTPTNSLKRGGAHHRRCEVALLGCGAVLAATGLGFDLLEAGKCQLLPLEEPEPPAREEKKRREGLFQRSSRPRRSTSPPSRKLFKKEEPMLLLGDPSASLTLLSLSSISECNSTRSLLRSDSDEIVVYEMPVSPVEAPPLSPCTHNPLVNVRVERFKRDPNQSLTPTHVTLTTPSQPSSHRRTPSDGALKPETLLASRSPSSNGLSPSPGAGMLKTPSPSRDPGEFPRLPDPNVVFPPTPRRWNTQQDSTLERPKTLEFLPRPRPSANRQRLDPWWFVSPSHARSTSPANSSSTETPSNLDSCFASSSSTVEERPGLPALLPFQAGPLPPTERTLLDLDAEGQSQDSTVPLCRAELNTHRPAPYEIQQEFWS

Consider `CCOCc1ccc2c(c1)c1c3c(c4c5cc(COCC)ccc5n5c4c1n2[C@H]1C[C@](O)(C(=O)OC)[C@]5(C)O1)CNC3=O`, for which the IC50 against Protein kinase C (PKC) turned out to be 2600 nM; in assay [1] it was 210 nM; in assay [2], 19 nM; in assay [3], 11 nM; in assay [4], 20 nM.
Turning to `CCSCc1ccc2c(c1)c1c3c(c4c5ccccc5n5c4c1n2[C@H]1C[C@](O)(C(=O)OC)[C@]5(C)O1)CNC3=O`, the IC50 on Protein kinase C (PKC) was 222 nM; in assay [1], more than 1000 nM; in assay [2], 43 nM; in assay [3], 44 nM; in assay [4] it was 140 nM.
`CCCSCc1ccc2c(c1)c1c3c(c4c5cc(CSCCC)ccc5n5c4c1n2[C@H]1C[C@](O)(C(=O)OC)[C@]5(C)O1)CNC3=O`: the IC50 against Protein kinase C (PKC) is more than 10000 nM; in assay [1], more than 10000 nM; in assay [2], 90 nM; in assay [3], 56 nM.
On to `CCCCSCc1ccc2c(c1)c1c3c(c4c5cc(CSCCCC)ccc5n5c4c1n2[C@H]1C[C@](O)(C(=O)OC)[C@]5(C)O1)CNC3=O`, for which the half-maximal inhibitory concentration (IC50) against Protein kinase C (PKC) is more than 7600 nM; in assay [1], more than 1000 nM; in assay [2], 303 nM; in assay [3] it was 143 nM; in assay [4] it was 627 nM.
For the compound `COC(=O)[C@@]1(O)C[C@H]2O[C@]1(C)n1c3ccc(CSCCN(C)C)cc3c3c4c(c5c6cc(CSCCN(C)C)ccc6n2c5c31)C(=O)NC4`, the IC50 was 1600 nM at Protein kinase C (PKC), more than 1000 nM in assay [1], 360 nM in assay [2] and 123 nM in assay [3].
Turning to `C=CCSCc1ccc2c(c1)c1c3c(c4c5cc(CSCC=C)ccc5n5c4c1n2[C@H]1C[C@](O)(C(=O)OC)[C@]5(C)O1)CNC3=O`, the half-maximal inhibitory concentration (IC50) is more than 10000 nM against Protein kinase C (PKC), more than 1000 nM in assay [1], 162 nM in assay [2] and 94 nM in assay [3].
Take `COC(=O)[C@@]1(O)C[C@H]2O[C@]1(C)n1c3ccc(CO)cc3c3c4c(c5c6cc(CO)ccc6n2c5c31)C(=O)NC4`: the IC50 was found to be 3 nM against Protein kinase C (PKC), 15 nM in assay [2] and 11 nM in assay [3].
As for `CCSCc1ccc2c(c1)c1c3c(c4c5cc(CSCC)ccc5n5c4c1n2[C@H]1C[C@](O)(C(=O)OC)[C@]5(C)O1)CNC3=O` [CEP-1347], the IC50 against Protein kinase C (PKC) was more than 10000 nM; in assay [1], more than 10000 nM; in assay [2], 38 nM; in assay [3], 23.1 nM; in assay [4] it was 51 nM.
As for `COC(=O)[C@@]1(O)C[C@H]2O[C@]1(C)n1c3ccc(CSC(C)C)cc3c3c4c(c5c6cc(CSC(C)C)ccc6n2c5c31)C(=O)NC4`, the IC50 at Protein kinase C (PKC) is 980 nM; in assay [1], more than 10000 nM; in assay [2] it was 45 nM; in assay [3] it was 31 nM; in assay [4], 89 nM.
For `CCSCc1ccc2c(c1)c1c3c(c4c5ccccc5n5c4c1n2[C@@]1(C)O[C@@H]5C[C@]1(O)C(=O)OC)C(=O)NC3` the same measures were 400 nM, 61 nM, 28 nM, 21 nM and 28 nM.
For `COCc1ccc2c(c1)c1c3c(c4c5cc(COC)ccc5n5c4c1n2[C@H]1C[C@](O)(C(=O)OC)[C@]5(C)O1)CNC3=O` the same measures were 450 nM, 270 nM, 16 nM, 11 nM and 16 nM.

The values are drawn from ChEMBL document CHEMBL1135365, “Mixed lineage kinase activity of indolocarbazole analogues” (Bioorg Med Chem Lett, 2002).
